Among the test systems are CCRF-CEM leukemia; COLO 205 colon; HCC-2998 colon; KM12 colon; MALME-3M melanoma; NCI-H23 lung; OVCAR-8 ovarian; PC-3 prostate; SK-MEL-2 melanoma; SN12C renal.
Holding throughout (experiment): growth of human tumour cells (NCI), 48 h

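The compound was tested at five concentrations on cells cultured in 96-well plates, with a 48-hour exposure period. Abbreviation: GI50, concentration required for 50% inhibition of growth. TGI marks complete inhibition of growth.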 Where only a bound is given, the exact number is not on record here.

With `CN(C)C(=S)NN=C(c1ccccn1)c1ccccn1`, the TGI in the assay on CCRF-CEM leukemia is over 65.2 µM; with COLO 205 colon, 11.8 µM; with HCC-2998 colon, 21.2 µM; with KM12 colon it was 21.6 µM; in the assay with MALME-3M melanoma, 0.503 µM; in the assay with NCI-H23 lung it was 16.3 µM. The TGI in the assay on OVCAR-8 ovarian was 27 µM; in the assay on PC-3 prostate, over 43.8 µM; in the assay on SK-MEL-2 melanoma it was 4.2 µM; with SN12C renal, 33.4 µM. Further, the GI50 is under 0.01 µM in the assay with COLO 205 colon; 0.0327 µM in the assay on HCC-2998 colon; 0.046 µM with KM12 colon; under 0.0331 µM in the assay on MALME-3M melanoma; under 0.01 µM with NCI-H23 lung; 0.0361 µM in the assay with OVCAR-8 ovarian. In addition, the GI50 in the assay on PC-3 prostate is under 0.0123 µM; in the assay on SK-MEL-2 melanoma, 0.106 µM; in the assay with SN12C renal, 0.0971 µM.

As to `COc1cc2c(c(OC)c1OC)-c1ccc(NNC(=S)N(Cc3cccc(C[N+](Cc4cccc(CNC56CC7CC(CC(C7)C5)C6)c4)(Cc4cccc(CNC56CC7CC(CC(C7)C5)C6)c4)Cc4cccc(CN(C(=S)NNc5ccc6c(cc5=O)[C@@H](NC(C)=O)CCc5cc(OC)c(OC)c(OC)c5-6)C56CC7CC(CC(C7)C5)C6)c4)c3)C34CC5CC(CC(C5)C3)C4)c(=O)cc1[C@@H](NC(C)=O)CC2` (some centres undefined), the GI50 is 0.904 µM in the assay on CCRF-CEM leukemia; 0.683 µM in the assay with COLO 205 colon; 0.635 µM in the assay with HCC-2998 colon; 1.08 µM with KM12 colon; 0.83 µM with MALME-3M melanoma; 1.38 µM in the assay with NCI-H23 lung. The GI50 with OVCAR-8 ovarian is 2.03 µM; in the assay on PC-3 prostate, 1.45 µM; in the assay on SK-MEL-2 melanoma, 0.861 µM; in the assay on SN12C renal it was 2.23 µM. Besides, the TGI was 2.47 µM in the assay on CCRF-CEM leukemia; 1.52 µM in the assay with COLO 205 colon; 1.47 µM in the assay on HCC-2998 colon; 4.52 µM in the assay on KM12 colon; 3.04 µM with MALME-3M melanoma; 5.33 µM in the assay with NCI-H23 lung. In addition, the TGI in the assay on OVCAR-8 ovarian came out at 7.49 µM; in the assay with PC-3 prostate, 5.64 µM; in the assay on SK-MEL-2 melanoma it was 2.76 µM; in the assay with SN12C renal, 6.9 µM.

With `COc1ccc(Nc2ccnc(NCCNc3ccnc4cc(Cl)ccc34)n2)cc1`, the GI50 in the assay with CCRF-CEM leukemia is 1.65 µM; in the assay with COLO 205 colon, 1.45 µM; in the assay on HCC-2998 colon, 1.5 µM; with KM12 colon, 3.72 µM; in the assay with MALME-3M melanoma, 1.93 µM; with NCI-H23 lung it was 2.75 µM. In addition, the GI50 in the assay with OVCAR-8 ovarian is 3.54 µM; with PC-3 prostate, 1.85 µM; in the assay with SK-MEL-2 melanoma, 2.25 µM; in the assay with SN12C renal, 3.73 µM. In addition, the TGI amounted to 8.23 µM in the assay on CCRF-CEM leukemia; 3.24 µM with COLO 205 colon; 3.48 µM with HCC-2998 colon; 15.2 µM with KM12 colon; 3.87 µM in the assay on MALME-3M melanoma; 14.9 µM in the assay with NCI-H23 lung. Besides, the TGI was determined as 17.3 µM with OVCAR-8 ovarian, 16 µM in the assay on PC-3 prostate, 4.11 µM with SK-MEL-2 melanoma and 18.4 µM in the assay on SN12C renal.

Turning to `CC/C=C\C/C=C\C[C@H](O)C/C=C1/C(=O)C=C[C@H]1C/C=C\CCC(=O)OC`, the GI50 is 2.31 µM in the assay on CCRF-CEM leukemia; 3.87 µM in the assay on COLO 205 colon; 1.6 µM in the assay with HCC-2998 colon; 2.2 µM in the assay on KM12 colon; 2.2 µM in the assay on MALME-3M melanoma; 2.06 µM with NCI-H23 lung. The GI50 in the assay on OVCAR-8 ovarian is 2.51 µM; in the assay on PC-3 prostate it was 3.75 µM; in the assay with SK-MEL-2 melanoma, over 8.25 µM; in the assay with SN12C renal, 2.62 µM. Further, the TGI was 7.8 µM with CCRF-CEM leukemia; over 8.25 µM in the assay with COLO 205 colon; 3.39 µM with HCC-2998 colon; over 8.25 µM in the assay on KM12 colon; over 8.25 µM in the assay on MALME-3M melanoma; 6.67 µM in the assay on NCI-H23 lung. In addition, the TGI in the assay with OVCAR-8 ovarian, in the assay with PC-3 prostate, in the assay with SK-MEL-2 melanoma and with SN12C renal was over 8.25 µM each time.

Consider `CN(C)/C=C/c1nnnn1-c1ccc(Cl)cc1`, for which the GI50 was 4.65 µM in the assay on CCRF-CEM leukemia; 28.2 µM in the assay with COLO 205 colon; 18.3 µM with HCC-2998 colon; 22 µM in the assay on KM12 colon; 12.8 µM in the assay with MALME-3M melanoma; 11.8 µM with NCI-H23 lung. In addition, the GI50 was 11.2 µM in the assay with OVCAR-8 ovarian, 6.76 µM in the assay on PC-3 prostate, 13.2 µM in the assay on SK-MEL-2 melanoma and 4.69 µM in the assay with SN12C renal. For the same compound, the TGI in the assay with CCRF-CEM leukemia stood at 42.4 µM; in the assay on COLO 205 colon, 58.7 µM; with HCC-2998 colon, 34.5 µM; with KM12 colon, 64.8 µM; with MALME-3M melanoma, 38.7 µM; in the assay with NCI-H23 lung, 29.8 µM. Also, the TGI in the assay on OVCAR-8 ovarian is 64.4 µM; in the assay on PC-3 prostate it was 35.5 µM; with SK-MEL-2 melanoma, over 100 µM; in the assay with SN12C renal, 28.8 µM.

Source of the values: PubChem BioAssay (NCI).
